Laboratory results published in patent US20140113888A1, “Novel Combination of Therapeutic Agents” (Glaxo Group Limited, priority 2011, published 2014).

What was measured:
[1] = clinical studies of fluticasone furoate (general statement); format: in vivo, human
[2] = 8 week randomised, double-blind, placebo-controlled study in persistent uncontrolled asthma; format: in vivo, human
Experimental: In one such study, the safety and efficacy of four doses of fluticasone furoate in subjects with persistent uncontrolled asthma were evaluated. In this study, which was a randomised, double-blind, placebo-controlled, parallel group study, 598 patients received one of six treatments: fluticasone furoate (25, 50, 100 or 200 mcg) once daily, fluticasone propionate 100 mcg twice daily or placebo for 8 weeks. The primary endpoint was change from baseline in trough (pre-dose) forced expiratory volume in 1 second (FEV1) at Week 8. […] This study supports the use of fluticasone furoate (100 or 200 mcg once-daily) for the treatment of persistant uncontrolled asthma.

[3] = biological target: human M3 receptor (Homo sapiens, UniProt P20309); experiment: reversibility at the human M3 receptor in vitro; format: binding
[4] = 28 day once-daily dry powder inhaler study in subjects with COPD; format: in vivo, human; conditions: 125, 250 and 500 mcg once-daily, 28 days
Description: A further study evaluated the efficacy and safety of three doses (125 mcg, 250 mcg and 500 mcg) of umeclidinium bromide administered once-daily via a dry powder inhaler over a 28 day period in subjects with COPD.

[5] = clinical pharmacology studies, single inhaled doses, plethysmography (sGaw, Raw) and spirometry (FEV1); format: in vivo, human; conditions: healthy volunteers and COPD patients
Experimental: Several clinical pharmacology studies have been conducted using umeclidinium bromide in both healthy volunteers and COPD patients to investigate the safety, tolerability, pharmacokinetics and pharmacodynamics of this compound. The bronchodilatory effects and duration of action of single inhaled doses of this compound as measured by plethysmography (sGaw, Raw) and spirometry (FEV1) were assessed in some of the above noted studies.

[6] = test system: muscarinic receptor; experiment: studies in animal models and in humans: muscarinic receptor antagonism
[7] = 14-day once-daily study in subjects with COPD; format: in vivo, human; conditions: 14 days
Description: In addition, this study confirmed that umeclidinium bromide has a once-daily profile.

[8] = duration of action in vivo, administered directly to the lungs in pre-clinical models

Chain of human M3 receptor (P20309 whole entry): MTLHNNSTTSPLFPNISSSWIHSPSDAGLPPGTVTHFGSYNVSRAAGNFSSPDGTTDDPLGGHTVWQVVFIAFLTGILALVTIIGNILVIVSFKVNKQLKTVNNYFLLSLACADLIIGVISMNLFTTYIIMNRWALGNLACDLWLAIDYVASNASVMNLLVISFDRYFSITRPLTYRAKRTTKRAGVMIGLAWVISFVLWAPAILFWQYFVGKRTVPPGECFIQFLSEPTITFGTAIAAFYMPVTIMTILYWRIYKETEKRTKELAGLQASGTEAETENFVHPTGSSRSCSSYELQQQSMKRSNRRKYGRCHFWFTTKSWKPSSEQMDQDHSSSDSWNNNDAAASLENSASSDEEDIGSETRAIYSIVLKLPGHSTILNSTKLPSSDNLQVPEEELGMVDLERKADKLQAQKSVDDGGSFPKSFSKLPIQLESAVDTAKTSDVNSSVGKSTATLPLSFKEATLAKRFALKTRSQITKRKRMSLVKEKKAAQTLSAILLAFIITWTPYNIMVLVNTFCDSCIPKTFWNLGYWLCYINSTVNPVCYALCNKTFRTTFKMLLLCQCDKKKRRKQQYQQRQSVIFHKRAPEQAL

reversibility at the human M3 receptor [3]	Compound	tolerability ([1]; clinical studies)	activity after dosing ([1]; inhaled)	change from baseline in trough FEV1 at Week 8 relative to placebo ([2]; 50-200 mcg once daily, p<0.05)	increase in trough FEV1 at Week 8 ([2]; 100 mcg once daily) [mL]	increase in trough FEV1 at Week 8 ([2]; 200 mcg once daily) [mL]	bronchodilation [4]	safety [4]	bronchodilatory effects (sGaw, Raw, FEV1) [5]	duration of action [5] [h]	muscarinic receptor antagonist profile [6]	pulmonary function compared to placebo ([7]; 62.5, 125, 250, 500 and 1000 mcg once-daily)	trough FEV1 versus open label tiotropium active control (18 mcg once-daily) ([7]; all once-daily doses 62.5-1000 mcg)	duration of action in vivo [8]
–	C[C@@H]1C[C@H]2[C@@H]3C[C@H](F)C4=CC(=O)C=C[C@]4(C)[C@@]3(F)[C@@H](O)C[C@]2(C)[C@@]1(OC(=O)c1ccco1)C(=O)SCF [fluticasone furoate, 6α,9α-difluoro-17α-[(2-furanylcarbonyl)oxy]-11β-hydroxy-16α-methyl-3-oxo-androsta-1,4-diene-17β-carbothioic acid S-fluoromethyl ester]	well-tolerated	still active 24 hours after dosing	significantly greater increases	> 200	> 200	–	–	–	–	–	–	–	–
slow reversibility	OC(c1ccccc1)(c1ccccc1)C12CC[N+](CCOCc3ccccc3)(CC1)CC2.[Br-] [umeclidinium bromide, 4-[hydroxy(diphenyl)methyl]-1-{2-[(phenylmethyl)oxy]ethyl}-1-azoniabicyclo[2.2.2]octane bromide]	–	–	–	–	–	significant bronchodilation over twenty four hours	safe	clinically relevant bronchodilation	24	long acting high-affinity pan-active muscarinic receptor antagonist	statistically significant improvements	numerically greater improvement	long duration of action
